Values joined by “and” are separate entries in the source; they are usually repeats but may differ in a detail not shown here. Identical values can stand only once. Like-named read-outs stand apart in the source and are kept apart here.
Tests used:
SARS-CoV-2 USA-WA1/2020 [1] = format: cell-based; conditions: for protection from virus-induced CPE: at 1 μM (PF-00835231: 1 μM and above); for protection from ring syncytium formation (CPE): at 0.33 μM and above; for protection from ring syncytium formation (CPE) / overall number of infected foci: microscopy; for overall number of infected foci: A549+ACE2, drug treatment
[2] = test system: SARS-CoV-2 USA/NYU-VC-003/2020; format: cell-based
SARS-CoV-2 USA-WA1/2020 [3] = assay: Time-of-drug-addition assay in A549+ACE2 cells; format: cell-based; conditions: A549+ACE2, USA-WA1/2020
SARS-CoV-2 [4] = conditions: Vero E6 cells; cited from earlier work
[5] = test system: polarized human airway epithelial cultures (HAEC)
SARS-CoV-2 [6] = conditions: PF-00835231 with remdesivir, in vitro; cited from earlier work
SARS-CoV-2 USA-WA1/2020 [7] = format: cell-based; conditions: for SARS-CoV-2 infectious titers in apical washes: 10 μM basolateral, washes every 12 h up to 72 h; for number of infected (N-expressing) cells: 10 μM, 72-h endpoint
[8] = test system: panel of diverse coronavirus 3CL^pro; conditions: alpha-, beta- and gammacoronavirus 3CLpro panel; cited from earlier work
BCi-NS1.1 cells = conditions: 48 h, dose range up to 10 μM
COVID-19 patients = conditions: patients with more advanced infection, i.v.; cited from earlier work
in vitro = conditions: human
[9] = PF-00835231 versus GC-376 set (Table 2)

Row | SMILES | CC50 (A549^+ACE2 cells) [nM] | protection from virus-induced CPE (SARS-CoV-2 USA-WA1/2020 [1]) | EC90 [2] | EC50 [2, 9] [nM] | minimum treatment dose that led to undetectable infection levels (SARS-CoV-2 USA-WA1/2020 [3]) [µM] | EC50 (SARS-CoV-2 [4]) [nM] | effect on morphology of HAEC (histology) [5] | protection from ring syncytium formation (CPE) (SARS-CoV-2 USA-WA1/2020 [1]; A549+ACE2) | overall number of infected foci (SARS-CoV-2 USA-WA1/2020 [1]) | SARS-CoV-2 infectious titers in apical washes (SARS-CoV-2 USA-WA1/2020 [7]) | number of infected (N-expressing) cells (SARS-CoV-2 USA-WA1/2020 [7]) | ATP levels (cell viability) (BCi-NS1.1 cells) | also measured
1 | CC(C)C[C@H](NC(=O)OCc1ccccc1)C(=O)N[C@@H](CC1CCNC1=O)C(O)S(=O)(=O)[O-].[Na+] (stereo partly drawn) [GC-376, reference compound] | > 10000 | unable to protect cells from virus-induced CPE | 2730 nM | 529 | 10 | 900 |  |  |  |  |  |  | EC90 (SARS-CoV-2 USA-WA1/2020 [1]): 4550 nM and 5250 nM; number and size of viral foci (SARS-CoV-2 USA-WA1/2020 [1]; 1 μM, A549+ACE2): decreased the number and size of viral foci
2 | COc1cccc2[nH]c(C(=O)N[C@@H](CC(C)C)C(=O)N[C@@H](C[C@@H]3CCNC3=O)C(=O)CO)cc12 [PF-00835231] | > 10000 | fully protected | 591 nM and 1170 nM | 326 | 3 | 270 | Neither drug caused measurable adverse effects on the morphology of the cultures | fully protected | decreased the overall number of infected foci | viral titers below the limit of detection at most time points | the number of infected cells was significantly reduced | did not detect a decrease in ATP | change in antiviral efficacy when blocking MDR1 (SARS-CoV-2 USA-WA1/2020 [1]): no changes in antiviral efficacy when blocking MDR1 activity; combination effect with remdesivir in inhibiting SARS-CoV-2 (SARS-CoV-2 [6]): significant synergistic effects; change in antiviral efficacy when blocking MDR1 (SARS-CoV-2 USA-WA1/2020 [7]; […], HAEC, 0.025 or 0.5 μM PF-00835231): no changes in antiviral efficacy when blocking MDR1 activity; EC50 ([2]; PF-00835231 versus remdesivir set (Table 1), n = 3): 184 nM; inhibition of 3CLpro [8]: potent inhibition; antiviral activity against SARS-CoV-2 (SARS-CoV-2 [4]): high micromolar levels; effect of inhibiting MDR1 function on antiviral efficacy (SARS-CoV-2 [4]): significantly increased antiviral efficacy
3 | CCC(CC)COC(=O)[C@H](C)N[P@](=O)(OC[C@H]1O[C@@](C#N)(c2ccc3c(N)ncnn23)[C@H](O)[C@@H]1O)Oc1ccccc1 [remdesivir, reference compound] |  |  |  |  |  |  | Neither drug caused measurable adverse effects on the morphology of the cultures | fully protected | decreased the overall number of infected foci | viral titers below the limit of detection at most time points | the number of infected cells was significantly reduced | caused a reduction in ATP levels compared to carrier control, albeit not statistically significantly | effect on transepithelial resistance (TEER) over time [5]: negatively impacted TEER over time, albeit not statistically significantly compared to untreated cultures; patients with benefit (COVID-19 patients): 68%; CC50 (in vitro): > 10000 nM

— publication PMC8139662 (Journal of Virology, 2021)
